Tests used:
interleukin 6 (IL-6) = assay: Anti-inflammatory effect: IL-6 release by keratinocytes stimulated by UV (ELISA, related to protein level); assay type: cell-based, human; details: positive control
Experimental: This test consists of evaluating the production of inflammatory mediators by human keratinocytes in response to irritant stress. The method is based on measuring the release rate of interleukin 6 (IL-6) by keratinocytes cultured in the presence of the ingredient and stimulated by UV light.
Five solutions are tested. Each is obtained by dilution in a culture medium and obtaining a final concentration of 1% ethanol. […] The second, third and fourth solutions differ in the concentration of the final residue (respectively 1.4 μg/mL, 3.5 μg/mL and 7.0 μg/mL). The fifth solution is dexamethasone (Dexa) (SIGMA Ref D1756) which is tested at 100 µM as a positive control.
On D0, 48 hours after seeding, the cells are rinsed with phosphate-buffered saline (PBS) and then exposed to UVB through the PBS. Immediately after irradiation, the PBS is replaced by the DMEM (Dulbecco's Modified Eagle Medium) test medium comprising the solution to be tested. The cells are returned to 37° C. and incubated for 24 hours.
On D1 (T 24 h), the incubation media are collected and the level of IL-6 is measured using the ELISA assay kit (IL-6 HIGH SENSITIVITY ELISA KIT, ENZO). At the same time, the corresponding cell layers are rinsed with Hank's Balanced Salt Solution (HBSS) and processed for cellular protein assay. A NaOH solution is added to each sample. After incubation, the cell extracts are collected and frozen at −20° C. to await assay with the BCA Protein Assay kit (PIERCE®).
The crude levels of IL-6 (pg per sample) are deduced by interpolation from the standard curve established with the IL-6 standard in the kit. The average of the IL-6 levels is calculated for each sample.
The protein level (μg per sample) is deduced by interpolation from the standard curve established with a bovine serum albumin standard in order to express the IL-6 level in relation to the average protein level. The average level is calculated for each sample.
The average IL-6 level is related to the average protein level. […]

PCi-SEB human sebocytes = assay: Anti-sebum effect: intracellular neutral lipids (Nile Red test) in sebocytes, lipogenesis induced by linoleic acid; assay type: cell-based; details: positive control
Experimental: The aim of this test is to study the anti-sebum effect of the ingredient according to the invention using an in vitro cell model. An extract is prepared according to Example 2.
The procedure is as follows. PCi-SEB human sebocytes derived from induced pluripotent stem (iPS) cells are prepared. The amplification and the maturation of PCi-SEB sebocytes is achieved by incubation in SEB medium for amplification for 2 days then in supplemented SEB medium for maturation for 3 days. The sebocytes are incubated for 24 hours in the presence of the ingredient according to the invention. Lipogenesis is induced by the addition of linoleic acid, then the sebocytes are incubated for 48 hours in the presence of the ingredient according to the invention.
In order to verify efficacy, the following biomarkers are measured: namely, intracellular neutral lipids (Nile Red test) and cellular proteins (Pierce BCA test).
The experimental plan is as follows: • 1 batch (Control): untreated cells incubated in SEB medium (n=3) • 1 batch (EtOH control): untreated cells incubated in SEB medium+EtOH (0.125%)] (n=3) • 3 batches (Test element-treated): cells incubated in medium (SEB+EtOH (0.125%)) and treated with 3 concentrations of test element (n=3) • 1 batch [PC]: cells incubated in SEB medium and treated with TOFA (20 μM)
The ingredient according to the invention was tested at 3 concentrations: C1=5 μg/mL, C2=15 μg/mL and C3=30 μg/mL
The level of neutral lipids was measured in control sebocyte cultures then treated by staining the cells with Nile Red. The values (fluorescence intensity) were reported at the average cellular protein level.
The [Nile-Red] values are expressed in arbitrary units (fluorescence intensity (urf) per mg of cellular protein).

C[C@@H]1C[C@H]2[C@@H]3CCC4=CC(=O)C=C[C@]4(C)[C@@]3(F)[C@@H](O)C[C@]2(C)[C@@]1(O)C(=O)CO [Dexa, dexamethasone]
Induced IL-6 (interleukin 6 (IL-6); 100 μM, 24 h after UVB): 105.10 pg/mg prot. | Induced IL-6 (%), with respect to IL-6 induced in the ethanol control (interleukin 6 (IL-6); 100 μM, 24 h after UVB): 8% | inhibition of UV-induced IL-6 release (interleukin 6 (IL-6); same experimental conditions): 92%

CCCCCCCCCCCCCCOc1ccc(C(=O)O)o1 [TOFA, 5-(tetradecyloxy)-2-furoic acid]
Neutral lipids - Nile Red, Mean, per mg of cellular protein (PCi-SEB human sebocytes; 20 μM): 7.01 URF/mg prot. | Nile Red Test, Mean (fluorescence intensity) (PCi-SEB human sebocytes; 20 μM): 1679 | Lipogenic effect (%) (PCi-SEB human sebocytes; 20 μM, vs. EtOH control): −75% | activity at 20 µM (PCi-SEB human sebocytes; Homo sapiens, read-out: Neutral lipids (% of controlEtOH)): 25%

From patent US20260144740A1, “COSMETIC ACTIVE INGREDIENT DERIVED FROM A NON-VOLATILE FRACTION OF CANARIUM EXUDATE AND USES THEREOF” (FLORE SCOLA, priority 2022, published 2026)
